How the values were obtained:
[1] = species on record: Canis familiaris; assay: Ability to block B-HT 920-induced contraction in canine saphenous vein.; type: functional; details: Canis lupus familiaris
[2] = species on record: Cavia porcellus; assay: Ability to block B-HT 920-induced inhibition of inotropic response to field stimulation in superfused guinea pig atrium; type: functional; details: Cardiac atrium
[3] = species on record: Oryctolagus cuniculus; assay: Ability to block norepinephrine-induced contraction in rabbit aorta.; type: functional
[4] = molecular target: T1, Alpha-1D adrenergic receptor (Homo sapiens, UniProt P25100); assay: biochemical
T1 sequence (P25100 whole entry): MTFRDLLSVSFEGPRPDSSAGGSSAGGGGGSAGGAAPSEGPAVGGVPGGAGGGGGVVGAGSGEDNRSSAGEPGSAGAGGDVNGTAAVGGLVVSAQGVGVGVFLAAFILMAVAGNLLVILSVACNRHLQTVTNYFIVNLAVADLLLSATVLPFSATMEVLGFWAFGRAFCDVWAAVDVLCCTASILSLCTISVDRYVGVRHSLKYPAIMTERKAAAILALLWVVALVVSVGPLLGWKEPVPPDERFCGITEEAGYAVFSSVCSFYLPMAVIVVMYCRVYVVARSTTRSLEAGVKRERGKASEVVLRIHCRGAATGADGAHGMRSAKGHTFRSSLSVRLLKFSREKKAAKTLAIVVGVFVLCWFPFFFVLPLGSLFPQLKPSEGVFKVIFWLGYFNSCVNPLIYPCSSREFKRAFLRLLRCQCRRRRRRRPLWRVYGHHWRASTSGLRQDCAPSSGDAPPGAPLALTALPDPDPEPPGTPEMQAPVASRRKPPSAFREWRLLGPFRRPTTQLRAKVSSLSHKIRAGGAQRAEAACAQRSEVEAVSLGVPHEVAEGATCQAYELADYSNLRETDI
Description: Inhibition of [3H]prazosin binding to human Alpha-1D adrenergic receptor expressed in CHO cells

[5] = molecular target: T2, Alpha-1A adrenergic receptor (Homo sapiens, UniProt P35348); assay: biochemical
T2 sequence (P35348 whole entry): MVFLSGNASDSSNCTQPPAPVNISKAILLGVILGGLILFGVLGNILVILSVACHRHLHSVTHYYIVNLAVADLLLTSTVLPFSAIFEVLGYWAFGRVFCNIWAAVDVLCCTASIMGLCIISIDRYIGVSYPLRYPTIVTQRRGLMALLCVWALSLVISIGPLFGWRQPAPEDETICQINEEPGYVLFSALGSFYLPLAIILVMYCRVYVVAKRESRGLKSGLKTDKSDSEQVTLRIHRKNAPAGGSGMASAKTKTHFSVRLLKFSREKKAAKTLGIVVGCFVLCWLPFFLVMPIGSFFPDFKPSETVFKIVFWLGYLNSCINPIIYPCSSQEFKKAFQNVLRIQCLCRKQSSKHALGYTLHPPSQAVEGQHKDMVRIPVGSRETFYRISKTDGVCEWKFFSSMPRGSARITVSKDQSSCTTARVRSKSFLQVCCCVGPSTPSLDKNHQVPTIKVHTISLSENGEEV
Description: Inhibition of [3H]prazosin binding to human Alpha-1A adrenergic receptor expressed in CHO cells

[6] = molecular target: T3, Alpha-1B adrenergic receptor (Homo sapiens, UniProt P35368); assay: biochemical
T3 sequence (P35368 whole entry): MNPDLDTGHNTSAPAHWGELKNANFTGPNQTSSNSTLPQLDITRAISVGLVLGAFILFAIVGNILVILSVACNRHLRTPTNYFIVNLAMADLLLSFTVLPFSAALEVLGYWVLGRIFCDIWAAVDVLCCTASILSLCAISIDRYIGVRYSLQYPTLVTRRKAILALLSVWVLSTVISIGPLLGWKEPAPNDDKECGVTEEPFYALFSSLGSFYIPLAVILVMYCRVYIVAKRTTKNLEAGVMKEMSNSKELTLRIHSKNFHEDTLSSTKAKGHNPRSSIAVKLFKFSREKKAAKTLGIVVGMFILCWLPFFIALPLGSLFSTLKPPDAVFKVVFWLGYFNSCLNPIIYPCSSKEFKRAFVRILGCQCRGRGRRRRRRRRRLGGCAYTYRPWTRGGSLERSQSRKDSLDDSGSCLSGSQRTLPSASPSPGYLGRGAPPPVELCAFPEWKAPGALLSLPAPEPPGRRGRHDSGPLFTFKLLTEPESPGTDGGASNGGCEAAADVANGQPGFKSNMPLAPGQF
Description: Inhibition of [3H]prazosin binding to human Alpha-1B adrenergic receptor expressed in CHO cells

[7] = molecular target: T4, Alpha-2B adrenergic receptor (Homo sapiens, UniProt P18089); assay: biochemical; type: cell-based, CHO
T4 sequence (P18089 whole entry): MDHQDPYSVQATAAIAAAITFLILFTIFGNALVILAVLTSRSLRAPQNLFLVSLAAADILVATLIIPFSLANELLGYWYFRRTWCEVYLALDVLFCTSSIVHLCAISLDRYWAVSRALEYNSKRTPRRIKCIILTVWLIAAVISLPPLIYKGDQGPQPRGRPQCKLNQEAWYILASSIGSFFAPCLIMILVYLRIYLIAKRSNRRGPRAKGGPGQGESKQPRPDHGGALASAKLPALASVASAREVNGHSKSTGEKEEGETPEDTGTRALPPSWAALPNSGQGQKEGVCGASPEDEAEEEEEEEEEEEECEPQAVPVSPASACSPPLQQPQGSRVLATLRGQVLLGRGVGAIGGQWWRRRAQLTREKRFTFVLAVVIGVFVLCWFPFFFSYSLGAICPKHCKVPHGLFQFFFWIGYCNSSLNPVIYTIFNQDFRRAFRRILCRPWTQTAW

[8] = molecular target: T5, Alpha-2A adrenergic receptor (Homo sapiens, UniProt P08913); assay: biochemical
T5 sequence (P08913 whole entry): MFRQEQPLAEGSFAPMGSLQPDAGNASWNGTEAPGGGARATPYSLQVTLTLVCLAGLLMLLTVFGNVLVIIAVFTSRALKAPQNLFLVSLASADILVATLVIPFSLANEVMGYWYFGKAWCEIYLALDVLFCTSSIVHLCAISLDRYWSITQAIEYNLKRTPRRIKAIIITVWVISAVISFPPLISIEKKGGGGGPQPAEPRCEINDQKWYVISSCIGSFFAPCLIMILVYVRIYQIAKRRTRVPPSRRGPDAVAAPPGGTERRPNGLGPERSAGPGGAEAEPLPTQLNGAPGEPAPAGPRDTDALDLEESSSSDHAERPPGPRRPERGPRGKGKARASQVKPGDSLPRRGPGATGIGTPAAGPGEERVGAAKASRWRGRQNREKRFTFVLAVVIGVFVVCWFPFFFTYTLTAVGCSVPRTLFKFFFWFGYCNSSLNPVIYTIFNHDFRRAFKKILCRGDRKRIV

[9] = molecular target: T6, Alpha-2C adrenergic receptor (Homo sapiens, UniProt P18825); assay: biochemical
T6 sequence (P18825 whole entry): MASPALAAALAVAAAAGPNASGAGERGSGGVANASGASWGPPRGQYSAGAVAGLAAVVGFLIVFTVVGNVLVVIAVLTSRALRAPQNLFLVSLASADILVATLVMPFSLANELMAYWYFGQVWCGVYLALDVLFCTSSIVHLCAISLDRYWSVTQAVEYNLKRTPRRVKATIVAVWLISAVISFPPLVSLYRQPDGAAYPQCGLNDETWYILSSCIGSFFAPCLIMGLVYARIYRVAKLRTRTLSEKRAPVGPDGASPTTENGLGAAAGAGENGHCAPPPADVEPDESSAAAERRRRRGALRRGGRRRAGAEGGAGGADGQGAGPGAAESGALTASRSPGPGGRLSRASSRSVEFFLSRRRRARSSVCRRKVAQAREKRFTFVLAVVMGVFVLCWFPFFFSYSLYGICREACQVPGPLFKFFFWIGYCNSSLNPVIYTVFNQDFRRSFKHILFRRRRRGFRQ

[10] = molecular target: Voltage-dependent L-type calcium channel subunit alpha-1C (Rattus norvegicus, UniProt P22002); assay: biochemical
Sequence of Voltage-dependent L-type calcium channel subunit alpha-1C (P22002 whole entry): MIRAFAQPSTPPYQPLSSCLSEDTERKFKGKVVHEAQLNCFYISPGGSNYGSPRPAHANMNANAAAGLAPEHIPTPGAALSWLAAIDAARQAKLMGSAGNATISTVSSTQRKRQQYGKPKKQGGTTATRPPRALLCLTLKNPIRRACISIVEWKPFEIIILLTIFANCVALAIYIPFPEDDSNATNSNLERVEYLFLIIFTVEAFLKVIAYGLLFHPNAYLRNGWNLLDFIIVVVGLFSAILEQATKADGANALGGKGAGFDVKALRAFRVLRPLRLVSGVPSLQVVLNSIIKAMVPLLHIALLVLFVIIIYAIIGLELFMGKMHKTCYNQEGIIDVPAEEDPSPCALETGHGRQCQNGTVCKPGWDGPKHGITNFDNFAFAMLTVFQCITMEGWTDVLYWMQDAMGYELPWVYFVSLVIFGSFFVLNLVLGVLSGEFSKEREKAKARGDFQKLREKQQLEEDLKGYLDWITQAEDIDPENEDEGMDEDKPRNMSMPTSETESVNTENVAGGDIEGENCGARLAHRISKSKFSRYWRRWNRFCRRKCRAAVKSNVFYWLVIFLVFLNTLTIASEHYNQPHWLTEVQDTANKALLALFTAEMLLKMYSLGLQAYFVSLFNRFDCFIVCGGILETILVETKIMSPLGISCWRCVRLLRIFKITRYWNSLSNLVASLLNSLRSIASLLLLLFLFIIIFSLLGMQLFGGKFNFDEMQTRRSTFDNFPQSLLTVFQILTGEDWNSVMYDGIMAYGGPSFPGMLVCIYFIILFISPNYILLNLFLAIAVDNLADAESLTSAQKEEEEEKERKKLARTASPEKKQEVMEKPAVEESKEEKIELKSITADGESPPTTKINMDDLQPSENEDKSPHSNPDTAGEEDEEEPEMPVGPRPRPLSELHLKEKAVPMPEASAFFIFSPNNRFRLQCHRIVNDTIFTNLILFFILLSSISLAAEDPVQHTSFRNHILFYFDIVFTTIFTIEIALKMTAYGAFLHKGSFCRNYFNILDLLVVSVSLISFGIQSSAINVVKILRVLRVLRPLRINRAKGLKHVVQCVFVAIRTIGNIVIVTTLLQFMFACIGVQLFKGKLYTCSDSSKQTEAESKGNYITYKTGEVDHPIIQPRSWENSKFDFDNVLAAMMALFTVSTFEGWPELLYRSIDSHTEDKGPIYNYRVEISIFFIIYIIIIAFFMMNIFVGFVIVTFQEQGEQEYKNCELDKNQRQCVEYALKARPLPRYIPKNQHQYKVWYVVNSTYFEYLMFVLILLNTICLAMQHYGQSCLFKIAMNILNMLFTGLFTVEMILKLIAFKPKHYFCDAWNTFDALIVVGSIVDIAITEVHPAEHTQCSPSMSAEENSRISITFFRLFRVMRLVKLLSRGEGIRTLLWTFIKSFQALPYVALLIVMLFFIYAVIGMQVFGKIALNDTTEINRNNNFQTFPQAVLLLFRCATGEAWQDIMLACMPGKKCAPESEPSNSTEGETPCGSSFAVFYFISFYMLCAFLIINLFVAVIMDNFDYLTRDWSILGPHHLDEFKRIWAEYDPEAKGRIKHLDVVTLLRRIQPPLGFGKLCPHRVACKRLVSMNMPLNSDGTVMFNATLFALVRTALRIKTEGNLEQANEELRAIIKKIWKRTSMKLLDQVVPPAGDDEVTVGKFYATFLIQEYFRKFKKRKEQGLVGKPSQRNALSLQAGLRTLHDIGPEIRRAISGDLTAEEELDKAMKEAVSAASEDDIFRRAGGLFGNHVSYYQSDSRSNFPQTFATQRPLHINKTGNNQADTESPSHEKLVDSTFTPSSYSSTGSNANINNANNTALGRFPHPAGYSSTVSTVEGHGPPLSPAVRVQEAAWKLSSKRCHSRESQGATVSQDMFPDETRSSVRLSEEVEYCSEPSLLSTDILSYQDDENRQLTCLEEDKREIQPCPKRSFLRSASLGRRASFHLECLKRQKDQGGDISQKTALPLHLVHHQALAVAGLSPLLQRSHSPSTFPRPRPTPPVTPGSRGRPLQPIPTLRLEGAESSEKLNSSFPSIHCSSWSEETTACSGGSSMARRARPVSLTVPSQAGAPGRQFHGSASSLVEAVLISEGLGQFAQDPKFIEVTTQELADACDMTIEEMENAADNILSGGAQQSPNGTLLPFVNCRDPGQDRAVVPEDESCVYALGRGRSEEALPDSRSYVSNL
Description: Inhibition of [3H]nitrendipine binding to membrane homogenates of rat cardiac muscle.

[11] = molecular target: Beta-2 adrenergic receptor (Cavia porcellus, UniProt Q8K4Z4); assay: Effective dose for relaxation of guinea pig trachea.
Sequence of Beta-2 adrenergic receptor (Q8K4Z4 whole entry): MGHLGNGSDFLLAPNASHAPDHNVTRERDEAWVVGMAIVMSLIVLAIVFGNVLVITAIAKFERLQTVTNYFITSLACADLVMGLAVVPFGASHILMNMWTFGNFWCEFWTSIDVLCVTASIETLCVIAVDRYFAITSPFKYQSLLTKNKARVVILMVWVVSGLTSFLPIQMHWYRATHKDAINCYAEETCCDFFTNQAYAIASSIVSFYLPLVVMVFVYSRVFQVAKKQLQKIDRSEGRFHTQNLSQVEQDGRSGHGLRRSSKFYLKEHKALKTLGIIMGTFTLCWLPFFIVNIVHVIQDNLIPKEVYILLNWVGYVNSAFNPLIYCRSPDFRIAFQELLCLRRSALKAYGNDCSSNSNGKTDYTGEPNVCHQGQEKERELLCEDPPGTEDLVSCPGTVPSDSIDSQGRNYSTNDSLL

[12] = molecular target: Beta-1 adrenergic receptor (Cavia porcellus, UniProt B0FL73); assay: Effective dose required to stimulate contractions in isolated guinea pig atrium.; type: functional, tissue-based, Cardiac atrium
Sequence of Beta-1 adrenergic receptor (B0FL73 whole entry): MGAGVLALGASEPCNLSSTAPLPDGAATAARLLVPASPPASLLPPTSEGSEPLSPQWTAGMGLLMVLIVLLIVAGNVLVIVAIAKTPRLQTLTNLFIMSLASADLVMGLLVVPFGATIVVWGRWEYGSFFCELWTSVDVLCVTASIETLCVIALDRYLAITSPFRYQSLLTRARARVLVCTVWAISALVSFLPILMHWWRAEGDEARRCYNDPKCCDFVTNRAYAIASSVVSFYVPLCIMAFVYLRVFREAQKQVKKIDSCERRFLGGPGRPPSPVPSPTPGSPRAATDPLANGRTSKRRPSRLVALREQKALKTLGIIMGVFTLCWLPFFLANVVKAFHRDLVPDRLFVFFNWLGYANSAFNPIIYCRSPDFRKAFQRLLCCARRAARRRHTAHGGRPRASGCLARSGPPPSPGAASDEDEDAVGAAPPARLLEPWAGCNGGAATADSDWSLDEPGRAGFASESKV

[13] = molecular target: T7, Monoamine oxidase (Homo sapiens, UniProt P21397+P27338); assay: Binding affinity for imidazoline receptor I-2; type: protein assay
T7 sequence (P21397 whole entry): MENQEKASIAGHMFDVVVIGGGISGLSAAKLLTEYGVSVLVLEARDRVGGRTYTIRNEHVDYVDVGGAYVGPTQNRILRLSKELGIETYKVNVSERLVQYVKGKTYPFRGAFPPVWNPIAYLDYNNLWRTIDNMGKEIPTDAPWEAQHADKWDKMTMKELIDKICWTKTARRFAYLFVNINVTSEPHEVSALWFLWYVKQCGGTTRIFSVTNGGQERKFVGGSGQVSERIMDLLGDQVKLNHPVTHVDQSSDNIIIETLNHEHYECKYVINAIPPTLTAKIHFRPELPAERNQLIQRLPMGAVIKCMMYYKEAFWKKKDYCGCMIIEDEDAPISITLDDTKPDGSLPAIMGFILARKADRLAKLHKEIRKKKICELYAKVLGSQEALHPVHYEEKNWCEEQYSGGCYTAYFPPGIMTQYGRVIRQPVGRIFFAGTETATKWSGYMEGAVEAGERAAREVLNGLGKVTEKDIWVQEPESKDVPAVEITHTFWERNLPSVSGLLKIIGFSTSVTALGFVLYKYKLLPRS
T7 sequence (P27338 whole entry): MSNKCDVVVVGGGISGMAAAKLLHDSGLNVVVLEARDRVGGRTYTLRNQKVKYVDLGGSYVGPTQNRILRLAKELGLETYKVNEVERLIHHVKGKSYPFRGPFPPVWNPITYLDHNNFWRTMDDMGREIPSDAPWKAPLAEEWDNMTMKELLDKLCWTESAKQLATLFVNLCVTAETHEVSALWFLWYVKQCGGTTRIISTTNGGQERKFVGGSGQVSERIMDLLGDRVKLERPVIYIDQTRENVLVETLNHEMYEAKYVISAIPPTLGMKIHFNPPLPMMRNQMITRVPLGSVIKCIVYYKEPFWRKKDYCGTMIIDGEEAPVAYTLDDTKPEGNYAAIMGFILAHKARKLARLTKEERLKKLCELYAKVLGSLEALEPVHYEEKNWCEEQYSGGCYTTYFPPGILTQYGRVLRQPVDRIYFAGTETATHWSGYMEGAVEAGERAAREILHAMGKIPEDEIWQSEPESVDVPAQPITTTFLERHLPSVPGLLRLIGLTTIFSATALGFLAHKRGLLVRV

| EC50 [11] | EC50 [12] | SMILES | Kb [1] | Kb [2] | Kb [3] | Ki [4] | Ki [5] | Ki [6] | Ki [7] | Ki [8] | Ki [9] | Ki [10] | Ki [13] |
| --- | --- | --- | --- | --- | --- | --- | --- | --- | --- | --- | --- | --- | --- |
| – | – | CC(C)=CCOc1ccc(Cl)c2c1CCN(C)CC2 | 76 nM | > 3000 nM | 150 nM | 33 nM | 33 nM | 87 nM | – | – | – | – | – |
| – | – | CN1CCc2c(Cl)ccc3oc(Br)c(c23)C1 | 40 nM | > 3000 nM | > 1000 nM | 72 nM | 3300 nM | 783 nM | 14 nM | 54 nM | 28 nM | – | – |
| – | – | CN1CCc2cccc(Cl)c2CC1 | 42 nM | 17 nM | 600 nM | 126 nM | 449 nM | 485 nM | 16 nM | 9.4 nM | – | – | – |
| – | – | CCc1sc2ccc(Cl)c3c2c1CN(C)CC3 | 84 nM | > 3000 nM | 56 nM | 1.2 nM | 58 nM | 15 nM | 15 nM | 31 nM | 35 nM | – | – |
| – | – | C=Cc1sc2ccc(Cl)c3c2c1CN(C)CC3 | 29 nM | > 3000 nM | 25 nM | 1.6 nM | 36 nM | 23 nM | 3.4 nM | 24 nM | 21 nM | – | – |
| – | – | CC1=C(C(N)=O)C(c2ccc([N+](=O)[O-])cc2)C(C(=O)NCCCN2CCC(c3ccccc3)(c3ccccc3)CC2)=C(C)N1 (stereo unspecified) | – | – | – | – | – | – | – | – | – | > 10 nM | – |
| – | – | CNC(=O)C1=C(C)NC(C)=C(C(=O)NCCCN2CCC(c3ccccc3)(c3ccccc3)CC2)C1c1ccc([N+](=O)[O-])cc1 (stereo unspecified) | – | – | – | – | 3.1 nM | – | – | – | – | > 5000 nM | – |
| – | – | COC(=O)C1=C(C)NC(C)=C(C(=O)NCCCN2CCC(c3ccccc3)(c3ccccc3)CC2)C1c1cccc([N+](=O)[O-])c1 (stereo unspecified) | – | – | – | – | 0.4 nM | – | – | – | – | 30 nM | – |
| 436 nM | 436 nM | CNC[C@H](O)c1ccc(O)c(O)c1 (stereo in doubt; (+)) [EPINEPHRINE] | – | – | – | – | – | – | – | – | – | – | – |
| 15 nM | 15 nM | CNC[C@H](O)c1ccc(O)c(O)c1 (stereo in doubt; (-)) [EPINEPHRINE] | – | – | – | – | – | – | – | – | – | – | – |
| – | – | c1ccc2c(c1)OCC(C1=NCCN1)O2 (stereo unspecified) [IDAZOXAN] | – | – | – | – | – | – | – | – | – | – | < 10 nM |
